From PMC9005681, “Use of AD Informer Set compounds to explore validity of novel targets in Alzheimer's disease pathology” (Alzheimer's & Dementia : Translational Research & Clinical …, 2022)

Experiments:
Experiment in all cases: PDSP GPCR panel primary binding assays at 10 μM
Conditions in all cases: primary assay
[1] = molecular target: T1, cloned human or rodent CNS receptors, channels, and transporters (PDSP panel) (Homo sapiens, UniProt P08172)
T1 construct: expressed in transfected cells
T1 sequence (P08172 1-466): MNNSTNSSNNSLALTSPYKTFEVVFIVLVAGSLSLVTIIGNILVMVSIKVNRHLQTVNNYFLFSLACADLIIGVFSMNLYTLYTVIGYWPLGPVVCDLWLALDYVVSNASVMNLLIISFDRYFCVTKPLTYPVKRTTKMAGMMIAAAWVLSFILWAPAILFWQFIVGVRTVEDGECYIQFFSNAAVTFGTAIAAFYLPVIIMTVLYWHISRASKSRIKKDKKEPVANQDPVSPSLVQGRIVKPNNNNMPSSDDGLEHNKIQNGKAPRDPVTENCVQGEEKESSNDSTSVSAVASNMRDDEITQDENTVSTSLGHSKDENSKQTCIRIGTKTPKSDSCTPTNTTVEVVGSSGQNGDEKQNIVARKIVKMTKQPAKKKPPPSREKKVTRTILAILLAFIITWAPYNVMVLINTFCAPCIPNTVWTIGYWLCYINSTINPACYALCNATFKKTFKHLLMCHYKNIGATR
Procedure, shortened: (§1)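 Radioligand displacement at cloned human or rodent CNS targets: 46–47 primary binding assays run in quadruplicate at 10 μM. Targets where the compound displaced an average of >50% of radiolabeled standard ligand went to secondary binding in 11-point dose-response, in triplicate; none run for H3, PBR or GABAA.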

[2] = molecular target: T2, cloned human or rodent CNS receptors, channels, and transporters (PDSP panel) (Homo sapiens, UniProt Q01959)
T2 construct: expressed in transfected cells
Procedure, shortened: as §1

[3] = molecular target: T3, cloned human or rodent CNS receptors, channels, and transporters (PDSP panel) (Homo sapiens, UniProt P21728)
T3 construct: expressed in transfected cells
Procedure, shortened: as §1

[4] = molecular target: T4, cloned human or rodent CNS receptors, channels, and transporters (PDSP panel) (Homo sapiens, UniProt P34969)
T4 construct: expressed in transfected cells
Procedure, shortened: as §1

[5] = molecular target: T5, cloned human or rodent CNS receptors, channels, and transporters (PDSP panel) (Homo sapiens, UniProt P46098)
T5 construct: expressed in transfected cells
T5 sequence (P46098 24-478): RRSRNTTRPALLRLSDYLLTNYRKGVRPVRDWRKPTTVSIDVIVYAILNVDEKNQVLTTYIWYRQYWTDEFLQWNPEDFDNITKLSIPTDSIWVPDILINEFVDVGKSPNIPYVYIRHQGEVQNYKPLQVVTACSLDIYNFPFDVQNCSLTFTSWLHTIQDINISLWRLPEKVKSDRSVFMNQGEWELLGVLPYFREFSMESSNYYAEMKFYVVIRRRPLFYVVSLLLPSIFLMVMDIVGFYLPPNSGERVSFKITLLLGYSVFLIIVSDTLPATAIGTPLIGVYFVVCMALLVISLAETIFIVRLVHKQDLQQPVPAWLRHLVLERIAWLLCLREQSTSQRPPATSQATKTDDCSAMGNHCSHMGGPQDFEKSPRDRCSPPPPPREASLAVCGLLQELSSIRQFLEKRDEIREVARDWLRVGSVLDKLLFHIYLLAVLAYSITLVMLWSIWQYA
Procedure, shortened: as §1

[6] = molecular target: T6, cloned human or rodent CNS receptors, channels, and transporters (PDSP panel) (Homo sapiens, UniProt P28335)
T6 construct: expressed in transfected cells
T6 sequence (P28335 33-458): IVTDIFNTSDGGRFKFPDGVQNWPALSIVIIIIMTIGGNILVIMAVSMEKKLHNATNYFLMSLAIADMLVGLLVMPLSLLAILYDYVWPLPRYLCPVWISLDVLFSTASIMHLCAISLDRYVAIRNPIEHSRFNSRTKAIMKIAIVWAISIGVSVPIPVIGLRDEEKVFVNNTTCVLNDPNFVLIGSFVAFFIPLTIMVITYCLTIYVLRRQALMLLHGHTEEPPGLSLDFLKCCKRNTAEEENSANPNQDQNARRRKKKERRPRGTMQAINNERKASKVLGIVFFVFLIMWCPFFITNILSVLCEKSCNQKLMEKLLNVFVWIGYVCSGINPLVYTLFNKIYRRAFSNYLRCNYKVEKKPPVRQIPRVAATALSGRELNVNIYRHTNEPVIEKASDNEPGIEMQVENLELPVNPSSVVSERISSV
Procedure, shortened: as §1

[7] = molecular target: T7, cloned human or rodent CNS receptors, channels, and transporters (PDSP panel) (Homo sapiens, UniProt P47898)
T7 construct: expressed in transfected cells
Procedure, shortened: as §1

[8] = molecular target: T8, cloned human or rodent CNS receptors, channels, and transporters (PDSP panel) (Homo sapiens, UniProt P41145)
T8 construct: expressed in transfected cells
Procedure, shortened: as §1

T3 sequence (P21728 whole entry): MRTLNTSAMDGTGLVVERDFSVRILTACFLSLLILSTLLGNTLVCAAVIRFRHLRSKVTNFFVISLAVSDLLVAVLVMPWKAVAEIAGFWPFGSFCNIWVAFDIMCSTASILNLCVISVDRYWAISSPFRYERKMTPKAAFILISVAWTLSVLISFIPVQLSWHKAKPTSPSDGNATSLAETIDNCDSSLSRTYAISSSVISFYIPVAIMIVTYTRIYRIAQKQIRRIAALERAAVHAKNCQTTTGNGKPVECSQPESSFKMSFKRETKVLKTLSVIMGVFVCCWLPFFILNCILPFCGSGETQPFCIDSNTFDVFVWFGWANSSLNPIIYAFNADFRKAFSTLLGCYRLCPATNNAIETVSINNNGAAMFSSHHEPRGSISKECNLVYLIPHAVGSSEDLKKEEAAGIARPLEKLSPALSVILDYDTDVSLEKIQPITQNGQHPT
T7 sequence (P47898 whole entry): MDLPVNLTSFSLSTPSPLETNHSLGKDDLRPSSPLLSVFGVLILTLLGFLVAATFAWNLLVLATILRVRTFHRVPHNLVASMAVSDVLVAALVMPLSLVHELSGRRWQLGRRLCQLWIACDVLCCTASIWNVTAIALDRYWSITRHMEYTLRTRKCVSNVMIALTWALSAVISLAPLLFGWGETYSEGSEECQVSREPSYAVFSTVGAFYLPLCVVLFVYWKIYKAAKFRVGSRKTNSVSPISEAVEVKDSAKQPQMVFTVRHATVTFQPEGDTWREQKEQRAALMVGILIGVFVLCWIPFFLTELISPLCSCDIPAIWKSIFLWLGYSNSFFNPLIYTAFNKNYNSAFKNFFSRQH
T8 sequence (P41145 whole entry): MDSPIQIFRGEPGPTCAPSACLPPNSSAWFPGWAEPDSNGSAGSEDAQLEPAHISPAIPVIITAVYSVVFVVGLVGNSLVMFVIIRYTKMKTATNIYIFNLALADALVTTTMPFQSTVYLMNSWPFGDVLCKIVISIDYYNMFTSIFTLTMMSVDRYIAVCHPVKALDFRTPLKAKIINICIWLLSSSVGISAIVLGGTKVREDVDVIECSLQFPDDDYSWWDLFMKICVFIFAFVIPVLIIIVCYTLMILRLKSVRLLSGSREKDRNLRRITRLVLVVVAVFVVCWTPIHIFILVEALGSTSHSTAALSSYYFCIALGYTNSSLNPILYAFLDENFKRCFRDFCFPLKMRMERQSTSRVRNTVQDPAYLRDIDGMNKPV
T2 sequence (Q01959 whole entry): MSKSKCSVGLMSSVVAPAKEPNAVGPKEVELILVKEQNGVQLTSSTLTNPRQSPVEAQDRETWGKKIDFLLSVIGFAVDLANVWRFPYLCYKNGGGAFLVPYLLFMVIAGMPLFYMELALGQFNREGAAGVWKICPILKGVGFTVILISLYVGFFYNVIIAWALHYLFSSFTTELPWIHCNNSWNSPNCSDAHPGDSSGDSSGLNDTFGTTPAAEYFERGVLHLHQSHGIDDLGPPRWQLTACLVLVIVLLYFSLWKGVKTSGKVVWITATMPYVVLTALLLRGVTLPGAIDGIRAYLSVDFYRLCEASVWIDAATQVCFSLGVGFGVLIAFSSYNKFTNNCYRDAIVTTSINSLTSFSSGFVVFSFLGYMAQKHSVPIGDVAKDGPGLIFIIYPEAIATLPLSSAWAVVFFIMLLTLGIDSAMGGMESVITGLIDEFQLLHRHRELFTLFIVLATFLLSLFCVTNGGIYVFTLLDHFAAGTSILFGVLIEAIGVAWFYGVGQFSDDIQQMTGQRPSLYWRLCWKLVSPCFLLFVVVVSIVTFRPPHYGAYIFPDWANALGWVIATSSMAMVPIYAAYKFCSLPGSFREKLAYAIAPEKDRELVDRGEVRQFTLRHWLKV
T4 sequence (P34969 whole entry): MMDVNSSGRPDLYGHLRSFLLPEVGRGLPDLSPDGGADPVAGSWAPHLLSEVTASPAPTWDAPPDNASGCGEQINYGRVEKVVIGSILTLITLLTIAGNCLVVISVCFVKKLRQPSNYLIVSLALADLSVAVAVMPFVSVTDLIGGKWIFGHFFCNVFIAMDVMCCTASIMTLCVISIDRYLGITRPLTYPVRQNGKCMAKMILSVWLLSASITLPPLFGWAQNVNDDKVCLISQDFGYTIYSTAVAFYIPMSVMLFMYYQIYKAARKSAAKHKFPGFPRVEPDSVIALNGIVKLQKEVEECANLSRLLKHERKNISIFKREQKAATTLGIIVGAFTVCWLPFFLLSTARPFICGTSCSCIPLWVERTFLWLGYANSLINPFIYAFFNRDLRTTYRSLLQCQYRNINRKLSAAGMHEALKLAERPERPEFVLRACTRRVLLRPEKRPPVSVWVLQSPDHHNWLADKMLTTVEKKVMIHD

In the case of `CCCCNc1ncc2c(-c3ccc(CN4CCN(C)CC4)cc3)cn([C@H]3CC[C@H](O)CC3)c2n1` [UNC2025C, UNC2025], the “Inhibition 1” value ([1]; Receptor M2, 10 μM) is reported as 32.43%, the “Inhibition 2” value ([1]; Receptor M2, 10 μM) is reported as 20.76% and the “Inhibition 3” value ([1]; Receptor M2, 10 μM) is reported as 14.93%. For the same molecule, the “Inhibition 4” value ([1]; Receptor M2, 10 μM) was 24.5%, the Mean % ([1]; Receptor M2, 10 μM, mean of Inhibition 1-4) was 23.16% and the “Inhibition 1” value ([2]; Receptor DAT, 10 μM) was 56.29%. For the same molecule, the “Inhibition 2” value ([2]; Receptor DAT, 10 μM) was 47.54%, the “Inhibition 3” value ([2]; Receptor DAT, 10 μM) was 58.45% and the “Inhibition 4” value ([2]; Receptor DAT, 10 μM) was 64.82%. The Mean % ([2]; Receptor DAT, 10 μM, mean of Inhibition 1-4) was 56.78%, the “Inhibition 1” value ([3]; Receptor D1, 10 μM) was 18.86% and the “Inhibition 2” value ([3]; Receptor D1, 10 μM) was -8.82%. For the same molecule, the “Inhibition 3” value ([3]; Receptor D1, 10 μM) was 17.73%, the “Inhibition 4” value ([3]; Receptor D1, 10 μM) was 11.41% and the Mean % ([3]; Receptor D1, 10 μM, mean of Inhibition 1-4) was 9.8%. The “Inhibition 1” value ([4]; Receptor 5-HT7A, 10 μM) was 13.62%, the “Inhibition 2” value ([4]; Receptor 5-HT7A, 10 μM) was -19.4% and the “Inhibition 3” value ([4]; Receptor 5-HT7A, 10 μM) was -17.29%. The “Inhibition 4” value ([4]; Receptor 5-HT7A, 10 μM) was -17.42%, the Mean % ([4]; Receptor 5-HT7A, 10 μM, mean of Inhibition 1-4) was -10.12% and the “Inhibition 1” value ([5]; Receptor 5-HT3, 10 μM) was 11.35%. The “Inhibition 2” value ([5]; Receptor 5-HT3, 10 μM) was 35.98%, the “Inhibition 3” value ([5]; Receptor 5-HT3, 10 μM) was 21.68% and the “Inhibition 4” value ([5]; Receptor 5-HT3, 10 μM) was 26.58%. The Mean % ([5]; Receptor 5-HT3, 10 μM, mean of Inhibition 1-4) was 23.9%, the “Inhibition 1” value ([6]; Receptor 5-HT2C, 10 μM) was 29.45% and the “Inhibition 2” value ([6]; Receptor 5-HT2C, 10 μM) was 46.13%. For the same molecule, the “Inhibition 3” value ([6]; Receptor 5-HT2C, 10 μM) was 31.41%, the “Inhibition 4” value ([6]; Receptor 5-HT2C, 10 μM) was 26.99% and the Mean % ([6]; Receptor 5-HT2C, 10 μM, mean of Inhibition 1-4) was 33.5%. The “Inhibition 1” value ([7]; Receptor 5-HT5A, 10 μM) was 24.59%, the “Inhibition 2” value ([7]; Receptor 5-HT5A, 10 μM) was 14.3% and the “Inhibition 3” value ([7]; Receptor 5-HT5A, 10 μM) was 9.95%. For the same molecule, the “Inhibition 4” value ([7]; Receptor 5-HT5A, 10 μM) was 29.74%, the Mean % ([7]; Receptor 5-HT5A, 10 μM, mean of Inhibition 1-4) was 19.65% and the “Inhibition 1” value ([8]; Receptor KOR, 10 μM) was -17.91%. The “Inhibition 2” value ([8]; Receptor KOR, 10 μM) was -11.2%, the “Inhibition 3” value ([8]; Receptor KOR, 10 μM) was -40.41% and the “Inhibition 4” value ([8]; Receptor KOR, 10 μM) was -19.03%. The Mean % ([8]; Receptor KOR, 10 μM, mean of Inhibition 1-4) was -22.14%.
`O=C(NC1CC1)C(=O)C(Cc1ccccc1)NC(=O)[C@H]1CCC(=O)N1Cc1ccccc1` (some centres unmarked) [UNC10302676A, ABT-957 (Alicapistat)] was tested, and the Mean % ([1]; M2, mean inhibition) was 2.92%, the “Inhibition 1” value ([1]; M2, replicate 1) was 7.16% and the “Inhibition 2” value ([1]; M2, replicate 2) was -5.38%. The “Inhibition 3” value ([1]; M2, replicate 3) was 7.65%, the “Inhibition 4” value ([1]; M2, replicate 4) was 2.24% and the Mean % ([2]; DAT, mean inhibition) was 30.14%. The “Inhibition 1” value ([2]; DAT, replicate 1) was 25.06%, the “Inhibition 2” value ([2]; DAT, replicate 2) was 27.22% and the “Inhibition 3” value ([2]; DAT, replicate 3) was 40.62%. The “Inhibition 4” value ([2]; DAT, replicate 4) was 27.66%, the Mean % ([3]; D1, mean inhibition) was 0% and the “Inhibition 1” value ([3]; D1, replicate 1) was 13.52%. For the same molecule, the “Inhibition 2” value ([3]; D1, replicate 2) was -11.9%, the “Inhibition 3” value ([3]; D1, replicate 3) was -21.45% and the “Inhibition 4” value ([3]; D1, replicate 4) was 19.83%. For the same molecule, the Mean % ([4]; 5-HT7A, mean inhibition) was 15.15%, the “Inhibition 1” value ([4]; 5-HT7A, replicate 1) was 8.6% and the “Inhibition 2” value ([4]; 5-HT7A, replicate 2) was 21.46%. For the same molecule, the “Inhibition 3” value ([4]; 5-HT7A, replicate 3) was 9.06%, the “Inhibition 4” value ([4]; 5-HT7A, replicate 4) was 21.46% and the Mean % ([5]; 5-HT3, mean inhibition) was -3.28%. The “Inhibition 1” value ([5]; 5-HT3, replicate 1) was -2.95%, the “Inhibition 2” value ([5]; 5-HT3, replicate 2) was -3.65% and the “Inhibition 3” value ([5]; 5-HT3, replicate 3) was -8.86%. The “Inhibition 4” value ([5]; 5-HT3, replicate 4) was 2.33%, the Mean % ([6]; 5-HT2C, mean inhibition) was -3.07% and the “Inhibition 1” value ([6]; 5-HT2C, replicate 1) was 14.23%. For the same molecule, the “Inhibition 2” value ([6]; 5-HT2C, replicate 2) was -14.23%, the “Inhibition 3” value ([6]; 5-HT2C, replicate 3) was -2.94% and the “Inhibition 4” value ([6]; 5-HT2C, replicate 4) was -9.33%. The Mean % ([7]; 5-HT5A, mean inhibition) was -3.42%, the “Inhibition 1” value ([7]; 5-HT5A, replicate 1) was 4.48% and the “Inhibition 2” value ([7]; 5-HT5A, replicate 2) was -8.24%. For the same molecule, the “Inhibition 3” value ([7]; 5-HT5A, replicate 3) was -6.55%, the “Inhibition 4” value ([7]; 5-HT5A, replicate 4) was -3.37% and the Mean % ([8]; KOR, mean inhibition) was -23.29%. The “Inhibition 1” value ([8]; KOR, replicate 1) was -17.69%, the “Inhibition 2” value ([8]; KOR, replicate 2) was -22.73% and the “Inhibition 3” value ([8]; KOR, replicate 3) was -22.5%. The “Inhibition 4” value ([8]; KOR, replicate 4) was -30.23%.
